From the supplement of paper PMC8612539
In brackets after ≈: the same amount, converted by molar mass.

Assays:
Pasteurella multocida = assay: minimum inhibitory concentration (MIC)
Protocol: (§1)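 Broth microdilution MIC (Sensititre BOPO7F bovine plate, CLSI methods) of 19 antimicrobials against field isolates of P. multocida, M. haemolytica, H. somni (deep nasopharyngeal swabs) and E. coli, Enterococcus spp. (rectal swabs) from weaned dairy heifers. Incubation 16-24 h at 35 C. MIC is the lowest concentration preventing visible growth. Values with <= or > lie at the tested range limits. Trimethoprim-sulfamethoxazole is given as the trimethoprim component of a 1:19 mixture.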

Enterococcus spp. = assay: minimum inhibitory concentration (MIC)
Protocol: as §1

NC[C@@H]1O[C@H](O[C@H]2[C@@H](O)[C@H](O[C@@H]3[C@@H](O)[C@H](N)C[C@H](N)[C@H]3O[C@H]3O[C@H](CN)[C@@H](O)[C@H](O)[C@H]3N)O[C@@H]2CO)[C@H](N)[C@@H](O)[C@@H]1O [Neomycin]
minimum inhibitory concentration [mg/L]
Conditions | Enterococcus spp. | Pasteurella multocida
isolate (source animal id): 2 | ≤ 4 | –
isolate (source animal id): 10 | – | > 32
isolate (source animal id): 11 | – | > 32
isolate (source animal id): 12 | – | > 32
isolate (source animal id): 19 | – | > 32
isolate (source animal id): 23 | – | > 32
isolate (source animal id): 26 | – | > 32
isolate (source animal id): 35 | > 32 | –
isolate (source animal id): 42 | > 32 | –
isolate (source animal id): 44 | > 32 | –
isolate (source animal id): 79 | > 32 | –
isolate (source animal id): 88 | 8 (≈ 13 µM) | –
isolate (source animal id): 91 | 8 (≈ 13 µM) | –
isolate (source animal id): 92 | 16 (≈ 26 µM) | –
isolate (source animal id): 98 | – | > 32
isolate (source animal id): 104 | – | > 32
isolate (source animal id): 111 | 16 (≈ 26 µM) | –
isolate (source animal id): 115 | – | 32 (≈ 52.1 µM)
isolate (source animal id): 117 | – | > 32
isolate (source animal id): 118 | – | > 32
isolate (source animal id): 121 | – | > 32
isolate (source animal id): 122 | > 32 | –
isolate (source animal id): 123 | 16 (≈ 26 µM) | –
isolate (source animal id): 124 | – | > 32
isolate (source animal id): 125 | – | > 32
isolate (source animal id): 128 | – | > 32
isolate (source animal id): 131 | – | > 32
isolate (source animal id): 133 | 32 (≈ 52.1 µM) | –
isolate (source animal id): 135 | – | > 32
isolate (source animal id): 136 | – | > 32
isolate (source animal id): 140 | – | > 32
isolate (source animal id): 144 | – | > 32
isolate (source animal id): 146 | – | > 32
isolate (source animal id): 150 | – | > 32
isolate (source animal id): 151 | – | 32 (≈ 52.1 µM)
isolate (source animal id): 153 | – | > 32
isolate (source animal id): 155 | – | > 32
isolate (source animal id): 157 | – | > 32
isolate (source animal id): 158 | > 32 | –
isolate (source animal id): 160 | – | 32 (≈ 52.1 µM)
isolate (source animal id): 164 | – | 32 (≈ 52.1 µM)
isolate (source animal id): 165 | – | 32 (≈ 52.1 µM)
isolate (source animal id): 167 | – | > 32
isolate (source animal id): 168 | 32 (≈ 52.1 µM) | > 32
isolate (source animal id): 169 | 16 (≈ 26 µM) | > 32
isolate (source animal id): 170 | – | > 32
isolate (source animal id): 171 | 8 (≈ 13 µM) | > 32
isolate (source animal id): 172 | – | > 32
isolate (source animal id): 173 | – | > 32
isolate (source animal id): 174 | – | > 32
isolate (source animal id): 175 | > 32 | > 32
isolate (source animal id): 176 | – | > 32
isolate (source animal id): 177 | 32 (≈ 52.1 µM) | 16 (≈ 26 µM)
isolate (source animal id): 178 | – | > 32
isolate (source animal id): 179 | – | > 32
isolate (source animal id): 181 | 32 (≈ 52.1 µM) | –
isolate (source animal id): 182 | 32 (≈ 52.1 µM) | > 32
isolate (source animal id): 183 | 32 (≈ 52.1 µM) | –
isolate (source animal id): 187 | 16 (≈ 26 µM) | –
isolate (source animal id): 190 | 32 (≈ 52.1 µM) | –
isolate (source animal id): 192 | – | > 32
isolate (source animal id): 193 | – | 16 (≈ 26 µM)
isolate (source animal id): 194 | 8 (≈ 13 µM) | –
isolate (source animal id): 195 | 32 (≈ 52.1 µM) | 32 (≈ 52.1 µM)
isolate (source animal id): 196 | – | 8 (≈ 13 µM)
isolate (source animal id): 197 | 16 (≈ 26 µM) | > 32
isolate (source animal id): 198 | – | > 32
isolate (source animal id): 199 | – | > 32
isolate (source animal id): 200 | – | > 32
isolate (source animal id): 201 | – | > 32
isolate (source animal id): 203 | – | 32 (≈ 52.1 µM)
isolate (source animal id): 204 | – | > 32
isolate (source animal id): 205 | – | > 32
isolate (source animal id): 206 | – | > 32
isolate (source animal id): 207 | – | > 32
isolate (source animal id): 208 | – | > 32
isolate (source animal id): 209 | – | 32 (≈ 52.1 µM)
isolate (source animal id): 210 | – | > 32
isolate (source animal id): 211 | > 32 | –
isolate (source animal id): 213 | – | > 32
isolate (source animal id): 214 | > 32 | –
isolate (source animal id): 216 | – | > 32
isolate (source animal id): 222 | > 32 | –
isolate (source animal id): 223 | 16 (≈ 26 µM) | > 32
isolate (source animal id): 227 | – | > 32
isolate (source animal id): 228 | > 32 | –
isolate (source animal id): 229 | – | > 32
isolate (source animal id): 230 | > 32 | –
isolate (source animal id): 233 | – | > 32
isolate (source animal id): 234 | – | > 32
isolate (source animal id): 235 | > 32 | –
isolate (source animal id): 236 | 8 (≈ 13 µM) | –
isolate (source animal id): 237 | – | > 32
isolate (source animal id): 239 | ≤ 4 | –
isolate (source animal id): 241 | > 32 | > 32
isolate (source animal id): 244 | 8 (≈ 13 µM) | –
isolate (source animal id): 245 | – | > 32
isolate (source animal id): 246 | 16 (≈ 26 µM) | –
isolate (source animal id): 247 | > 32 | > 32
isolate (source animal id): 250 | 16 (≈ 26 µM) | > 32
isolate (source animal id): 252 | > 32 | –
isolate (source animal id): 254 | – | > 32
isolate (source animal id): 255 | – | > 32
isolate (source animal id): 258 | – | > 32
isolate (source animal id): 261 | – | > 32
isolate (source animal id): 262 | – | > 32
isolate (source animal id): 268 | 8 (≈ 13 µM) | –
isolate (source animal id): 269 | – | > 32
isolate (source animal id): 270 | – | > 32
isolate (source animal id): 274 | – | > 32
isolate (source animal id): 275 | – | > 32
isolate (source animal id): 276 | – | > 32
isolate (source animal id): 277 | – | > 32
isolate (source animal id): 278 | – | > 32
isolate (source animal id): 279 | – | > 32
isolate (source animal id): 280 | – | > 32
isolate (source animal id): 282 | 16 (≈ 26 µM) | –
isolate (source animal id): 284 | – | > 32
isolate (source animal id): 285 | > 32 | > 32
isolate (source animal id): 287 | – | > 32
isolate (source animal id): 289 | 16 (≈ 26 µM) | –
isolate (source animal id): 290 | 16 (≈ 26 µM) | > 32
isolate (source animal id): 294 | – | > 32
isolate (source animal id): 295 | – | > 32
isolate (source animal id): 296 | 32 (≈ 52.1 µM) | > 32
isolate (source animal id): 298 | 16 (≈ 26 µM) | –
isolate (source animal id): 301 | 16 (≈ 26 µM) | –
isolate (source animal id): 307 | – | > 32
isolate (source animal id): 310 | > 32 | > 32
isolate (source animal id): 311 | – | > 32
isolate (source animal id): 312 | – | > 32
isolate (source animal id): 313 | – | > 32
isolate (source animal id): 315 | – | > 32
isolate (source animal id): 316 | – | > 32
isolate (source animal id): 320 | 16 (≈ 26 µM) | –
isolate (source animal id): 331 | > 32 | –
isolate (source animal id): 333 | 16 (≈ 26 µM) | –
isolate (source animal id): 341 | > 32 | –
